Values of other authors in US20250026710A1, “PROCESS FOR PREPARING A BENZOATE SALT OF A 1-(3-AMINOPYRROLIDINE-1-CARBONYL)-3,4-DIPHENYLBENZENE COMPOUND” (Astex Pharmaceuticals, Inc., priority 2021, published 2025).
Counter-ions that a name gives are not always drawn.

Columns and labels:
[1] = rats, dose 32 mg/5 mL/kg; listed as benzoic acid salt of Compound (A)
[2] = under the tested conditions of WO 2021/095835

For `CC(C)(O)Cc1ccc(-c2ccc(C(=O)N3CC[C@H](N)C3)cc2-c2ccc(C#N)c(F)c2)c(F)c1` [benzoate salt of Compound (A)], the Cmax [1] is given as 2680 nM, the Tmax [1] is given as 2.7 h and the solid stability [2] is given as “superior solid stability and maintains its purity up to four weeks”.
